# Assay results taken from ChEMBL document CHEMBL1131919, “Monocarboxylic-based phosphotyrosyl mimetics in the design of GRB2 SH2 domain inhibitors” (Bioorg Med Chem Lett, 1999).
# Target: Growth factor receptor-bound protein 2 (Homo sapiens, UniProt P62993)
# Test: Inhibitory concentration against Growth factor receptor bound protein 2 in MDA-MB-453 cells
# Type: cell-based
row,IC50 [µM],Compound
1,2,NC(=O)C[C@H](NC(=O)C1(NC(=O)[C@@H](Cc2ccc(C(F)(F)C(=O)O)cc2)NC(=O)C(=O)O)CCCCC1)C(=O)NCCCc1cccc2ccccc12
2,65,NC(Cc1ccc(CC(=O)O)cc1)C(=O)O (stereo not given)
3,28,NC(Cc1ccc(C(F)(F)C(=O)O)cc1)C(=O)O (stereo not given)
4,28,CC(=O)N[C@H](Cc1ccc(C(F)(F)C(=O)O)cc1)C(=O)NC1(C(=O)N[C@@H](CC(N)=O)C(=O)NCCCc2cccc3ccccc23)CCCCC1
5,65,CC(=O)N[C@H](Cc1ccc(OCC(=O)O)cc1)C(=O)NC1(C(=O)N[C@@H](CC(N)=O)C(=O)NCCCc2cccc3ccccc23)CCCCC1
6,15,NC(=O)C[C@H](NC(=O)C1(NC(=O)[C@@H](Cc2ccc(OCC(=O)O)cc2)NC(=O)C(=O)O)CCCCC1)C(=O)NCCCc1cccc2ccccc12
7,2.5,NC(Cc1ccc(OCC(=O)O)cc1)C(=O)O (stereo not given)
8,0.6,NC(=O)C[C@H](NC(=O)C1(NC(=O)[C@@H](Cc2ccc(CC(=O)O)cc2)NC(=O)C(=O)O)CCCCC1)C(=O)NCCCc1cccc2ccccc12
9,0.007,CC(=O)N[C@H](Cc1ccc(OP(=O)(O)O)cc1)C(=O)NC1(C(=O)N[C@@H](CC(N)=O)C(=O)NCCCc2cccc3ccccc23)CCCCC1
10,2.5,CC(=O)N[C@H](Cc1ccc(CC(=O)O)cc1)C(=O)NC1(C(=O)N[C@@H](CC(N)=O)C(=O)NCCCc2cccc3ccccc23)CCCCC1
